Test results taken from PMC10037499, “High-Throughput Screen Reveals the Structure–Activity Relationship of the Antimicrobial Lasso Peptide Ubonodin” (ACS Central Science, 2023).
Values after ≈ are worked out from the molar mass of the structure shown. Where a SMILES comes first, the peptide text is derived from it.

Columns and labels:
E. coli RNAP = conditions: cited from earlier work
B. cenocepacia AU0756 = tested on: B. cenocepacia AU0756; design: method as in PMID 35802499; conditions: spot-on-lawn assay; cited from earlier work
Source text: We proceeded to test the antimicrobial activity of the selected variants against two clinical isolates of the Bcc, B. cenocepacia AU0756 and B. cenocepacia AU24362, in broth microdilution assays. […] We revisited these measurements using broth microdilution assays following the Clinical & Laboratory Standards Institute (CLSI) standard.

E. coli MC1061 = test: Spot dilution assay of E. coli producing the ubonodin variant from pUboABC; type: cell-based; conditions: variant in pUboABC backbone in E. coli MC1061, induction with 100 μM IPTG, ten-fold serial dilutions, biological duplicates
Method in brief: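 E. coli MC1061 carrying the plasmids was grown at 37 °C in LB with 100 μg/mL ampicillin to OD600 0.3, then induced with 100 μM IPTG. Samples taken before induction and at later timepoints were PBS-washed, spotted as ten-fold dilutions on ampicillin/0.2% glucose LB plates, and imaged after 16 h at 37 °C.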

Which results are given for CC[C@H](C)[C@@H]1NC(=O)[C@H](CO)NC(=O)CNC(=O)[C@H](CC(=O)O)NC(=O)CNC(=O)CNC(=O)CC[C@@H](C(=O)N[C@@H](Cc2ccc(O)cc2)C(=O)N[C@@H](Cc2ccccc2)C(=O)N[C@@H](CC(N)=O)C(=O)N[C@@H](CCCNC(=N)N)C(=O)N2CCC[C@H]2C(=O)N[C@@H](CCSC)C(=O)N[C@@H](Cc2c[nH]cn2)C(=O)N[C@H](C(=O)N[C@@H](Cc2c[nH]cn2)C(=O)N[C@@H](CC(=O)O)C(=O)N[C@@H](Cc2c[nH]c3ccccc23)C(=O)N[C@@H](CCC(N)=O)C(=O)N[C@H](C(=O)N[C@@H](CCSC)C(=O)N[C@@H](CC(=O)O)C(=O)N[C@@H](CO)C(=O)NCC(=O)N[C@@H](Cc2ccc(O)cc2)C(=O)N[C@@H](Cc2ccc(O)cc2)C(=O)NCC(=O)O)[C@@H](C)CC)[C@@H](C)CC)NC(=O)[C@H](C)NC1=O [WT, ubonodin] (HELM PEPTIDE1{G.G.D.G.S.I.A.E.Y.F.N.R.P.M.H.I.H.D.W.Q.I.M.D.S.G.Y.Y.G}$PEPTIDE1,PEPTIDE1,1:R1-8:R3$$$V2.0; C-terminus assumed)?
Inhibition of E. coli RNAP in vitro (E. coli RNAP): inhibits E. coli RNAP in vitro; MIC against strain AU0756 (B. cenocepacia AU0756): 10 µM (≈ 32 µg/mL); Inhibits Growth (E. coli MC1061): Yes
